What follows are molecules tested on A549 (lung adenocarcinoma) (assay: Kinase inhibitor screen, selectivity = IMR-90 to A549 viability ratio (ATPlite 1 Step)). Settings: single drugs at 1000 nM, 72 hours, 244 KIs screened; FIG. 2.
Experimental: Cell lines IMR-90 (normal lung fibroblast) and A549 (lung adenocarcinoma) were cultured in RPMI 1640 (Hyclone) supplemented with 10% Canadian characterized fetal bovine serum (Hyclone), 1% 200 mM L-glutamine (Omega), and 1% penicillin/streptomycin (Omega). The media for the cells were renewed every 3 days and kept at 80-90% confluency. Cells were maintained in a humidified environment at 37° C. and 5% CO2.
IMR-90 (1500 cells/well) and A549 (750 cells/well) were seeded on 384-well microplates (Grenier Bio-One) and incubated for 3 hours before the addition of kinase inhibitor(s). The reason that IMR-90 was seeded at double the cell density of A549 is due to the difference in cell division. IMR-90's doubling time is 36-48 hours whereas A549's is 22 hours. […] Furthermore, both A549's and IMR-90's final confluency at 72 hrs is 90-95% and within the range of the ATPlite 1 step assay. ECHO 555 Liquid Handler (Labcyte) was used to dispense nanoliter volumes of each KI to 384-well plates with cells attached (wet dispense). The final volume in the plate is 40 uL and cells were incubated for 72 hours with KI treatment.
ATPlite 1 Step (Perkin Elmer) was used to evaluate the cell number and cytotoxicity. ATP measurements were done by dispensing 20 uL of the ATPlite 1 Step solution to each well to a final volume of 60 uL. The plate was placed on a shaker at 1100 rpm and the luminescence activity was detected by Analyst GT Plate Reader. The percent (%) of control is the quantity of ATPlite 1 step measurement of the treated versus the untreated wells of each individual cell type.
The 244 kinase inhibitors (KIs) of the EMD drug library were screened at 1000 nM individually and the treatment lasted for 72 hours.
where vN indicates the viability of normal cells (IMR90) after treatment, and vc the viability of cancer cells (A549) after treatment. […] For the other 243 KIs we used the standard dose of 1000 nM.
With O=C1c2ccccc2-c2nc3nnnn3nc21 [A15, PDK1/Akt1/Flt3 Dual Pathway Inhibitor] the “selectivity rank in primary screen (IMR-90 to A549 viability ratio)” value was “top ten most selective”.
In the case of Nc1nc(Nc2ccc(S(N)(=O)=O)cc2)nn1C(=S)Nc1c(F)cccc1F [C16, Cdk1/2 In. III], the “selectivity rank in primary screen (IMR-90 to A549 viability ratio)” value is reported as “top ten most selective”.
For NS(=O)(=O)c1ccc(N=Nc2c(O)[nH]c3ccc(Br)cc23)cc1 [D07, Cdk2 In. II], the “selectivity rank in primary screen (IMR-90 to A549 viability ratio)” value was “top ten most selective”.
In the case of CC(C)c1nn(-c2c(Cl)cccc2Cl)c2nc(Cc3ccc(OCCO)cc3)[nH]c(=O)c12 [E20, Cdk/Crk In.], the “selectivity rank in primary screen (IMR-90 to A549 viability ratio)” value is reported as “top ten most selective”.
O=C1c2ccccc2-[n+]2ccc3c([nH]c4ccccc43)c21 [G10, Fascaplysin, Synthetic] was tested, and the “selectivity rank in primary screen (IMR-90 to A549 viability ratio)” value was “top ten most selective”.
Cc1cc(I)ccc1Nc1c(C(=O)NOCC2CC2)cc(F)c(F)c1F [H15, MEK1/2 In. II] was tested, and the “selectivity rank in primary screen (IMR-90 to A549 viability ratio)” value was “top ten most selective”.
With Cc1ccc([N+](=O)[O-])cc1S(=O)(=O)N(C)/N=C/c1cnc2ccc(Br)cn12.Cl [L13, PI 3-Kα In. VIII] the “selectivity rank in primary screen (IMR-90 to A549 viability ratio)” value was “top ten most selective”.
For Nc1cccc(-c2cc3c(Oc4cccc(O)c4)ncnc3[nH]2)c1 [M16, GSK3b In. XII, TWS119], the “selectivity rank in primary screen (IMR-90 to A549 viability ratio)” value was “top ten most selective”.
c1nc2nc(Nc3ccc(N4CCOCC4)cc3)nc(NC3CCCCC3)c2[nH]1 [N05, Reversine] was tested, and the “selectivity rank in primary screen (IMR-90 to A549 viability ratio)” value was “top ten most selective”.
With COc1ccc2c(c1)/C(=C/c1cnc[nH]1)C(=O)N2 [O20, SU9516] the “selectivity rank in primary screen (IMR-90 to A549 viability ratio)” value was “top ten most selective”.

Same assay, conditions: single drugs at 1000 nM, 72 hours, 244 KIs screened; FIG. 2; listed as PDK1/Akt1/Flt3 Dual Pathway Inhibitor
For O=C1c2ccccc2-c2nc3nnnn3nc21 [A15, PDK1/Akt1/Flt3 Dual Pathway Inhibitor], the “selectivity rank in primary screen (IMR-90 to A549 viability ratio)” value was “top hit”.

These molecules were tested on primary myoblasts (assay: Protection of primary myoblasts against 0.1% hypoxia (viability screen)). Settings: single-drug screening of EMD library.
Type: cell-based
Source text: We used our method to predict synergistic effects between four kinase inhibitors: G13, O20, I15, and K10. […] Out of 244 drugs from the EMD library of kinase inhibitors, we first selected 58 drugs that have a positive effect on cell survivability against hypoxia. Single-drug screening results with these drugs were used as a training set to build a regression model that uses the kinase catalytic activity as predictor of the viability. The model assumed a dependence of the viability Vii of the form of Equation (V)
COc1ccc2c(c1)/C(=C/c1cnc[nH]1)C(=O)N2 [O20, SU9516] was tested, and the “protection of primary myoblasts against hypoxia” value was “protect primary myoblasts against 0.1% hypoxia”.
